From the kinase profiling compilation of Christmann-Franck et al. (2016)

Legend:
Test in all cases: radiometric filter-binding kinase assay, Kinase HotSpot
Settings in all cases: compound 0.5 µM; ATP 10 µM
ULK1 (human) = ULK1 (human) (UniProt O75385)
KDR (human) = KDR (human) (UniProt P35968)
PLK3 (human) = PLK3 (human) (UniProt Q9H4B4)
MAP4K2 (human) = MAP4K2 (human) (UniProt Q12851)
FGR (human) = FGR (human) (UniProt P09769)
PDGFRA (human) = PDGFRA (human) (UniProt P16234)
MAPK3 (human) = MAPK3 (human) (UniProt P27361)
MAP4K4 (human) = MAP4K4 (human) (UniProt O95819)
SRC (human) = SRC (human) (UniProt P12931)
ALK (human) = ALK (human) (UniProt Q9UM73)
DYRK2 (human) = DYRK2 (human) (UniProt Q92630)
CHEK2 (human) = CHEK2 (human) (UniProt O96017)
PRKD2 (human) = PRKD2 (human) (UniProt Q9BZL6)
MUSK (human) = MUSK (human) (UniProt O15146)
MAPK8 (human) = MAPK8 (human) (UniProt P45983)
AKT1 (human) = AKT1 (human) (UniProt P31749)
ACVRL1 (human) = ACVRL1 (human) (UniProt P37023)
BTK (human) = BTK (human) (UniProt Q06187)
MET (human) = MET (human) (UniProt P08581)
MAP3K8 (human) = MAP3K8 (human) (UniProt P41279)
SGK3 (human) = SGK3 (human) (UniProt Q96BR1)
IKBKE (human) = IKBKE (human) (UniProt Q14164)
PNCK (human) = PNCK (human) (UniProt Q6P2M8)
CAMK2G (human) = CAMK2G (human) (UniProt Q13555)
CDK1 CCNB1 (human) = CDK1 CCNB1 (human) (UniProt P06493+P14635)
DCLK2 (human) = DCLK2 (human) (UniProt Q8N568)
STK10 (human) = STK10 (human) (UniProt O94804)
EPHA8 (human) = EPHA8 (human) (UniProt P29322)
ROS1 (human) = ROS1 (human) (UniProt P08922)
ACVR1B (human) = ACVR1B (human) (UniProt P36896)
SGK2 (human) = SGK2 (human) (UniProt Q9HBY8)
EPHA4 (human) = EPHA4 (human) (UniProt P54764)
PAK1 (human) = PAK1 (human) (UniProt Q13153)
MAPK11 (human) = MAPK11 (human) (UniProt Q15759)
WNK2 (human) = WNK2 (human) (UniProt Q9Y3S1)
PRKCZ (human) = PRKCZ (human) (UniProt Q05513)
MAP3K7 TAB1 (human) = MAP3K7 TAB1 (human) (UniProt O43318+Q15750)
CDC42BPA (human) = CDC42BPA (human) (UniProt Q5VT25)
RAF1 (human) = RAF1 (human) (UniProt P04049)
CSNK1G2 (human) = CSNK1G2 (human) (UniProt P78368)
DYRK1A (human) = DYRK1A (human) (UniProt Q13627)
TAOK2 (human) = TAOK2 (human) (UniProt Q9UL54)

Sequence of DYRK2 (human) (Q92630 whole entry, looked up): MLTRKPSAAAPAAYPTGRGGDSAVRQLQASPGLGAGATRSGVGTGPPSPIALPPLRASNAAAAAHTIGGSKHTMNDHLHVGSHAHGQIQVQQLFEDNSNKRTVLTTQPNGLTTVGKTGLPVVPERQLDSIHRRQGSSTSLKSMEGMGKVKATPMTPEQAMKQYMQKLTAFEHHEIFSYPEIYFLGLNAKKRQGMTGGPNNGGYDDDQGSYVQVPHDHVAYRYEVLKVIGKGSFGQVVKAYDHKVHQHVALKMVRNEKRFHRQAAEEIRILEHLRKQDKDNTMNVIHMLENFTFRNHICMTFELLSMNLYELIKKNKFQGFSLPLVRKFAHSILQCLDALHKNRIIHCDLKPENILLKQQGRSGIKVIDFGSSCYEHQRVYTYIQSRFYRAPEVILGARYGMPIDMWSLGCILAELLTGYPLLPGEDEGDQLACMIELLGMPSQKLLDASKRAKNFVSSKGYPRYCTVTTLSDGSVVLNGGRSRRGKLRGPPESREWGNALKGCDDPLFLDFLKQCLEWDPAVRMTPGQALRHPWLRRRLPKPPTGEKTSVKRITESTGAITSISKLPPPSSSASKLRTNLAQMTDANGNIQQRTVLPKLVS
Sequence of SGK2 (human) (Q9HBY8 whole entry, looked up): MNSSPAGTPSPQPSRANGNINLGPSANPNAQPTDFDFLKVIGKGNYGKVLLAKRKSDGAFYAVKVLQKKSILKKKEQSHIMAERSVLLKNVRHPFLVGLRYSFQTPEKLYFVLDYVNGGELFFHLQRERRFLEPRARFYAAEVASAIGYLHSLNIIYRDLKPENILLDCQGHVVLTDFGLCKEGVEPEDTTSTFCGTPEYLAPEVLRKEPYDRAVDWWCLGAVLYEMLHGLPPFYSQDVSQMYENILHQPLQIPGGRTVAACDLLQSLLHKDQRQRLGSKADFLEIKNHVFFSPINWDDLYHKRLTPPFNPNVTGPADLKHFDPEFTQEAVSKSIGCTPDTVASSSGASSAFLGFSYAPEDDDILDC
Sequence of SGK3 (human) (Q96BR1 whole entry, looked up): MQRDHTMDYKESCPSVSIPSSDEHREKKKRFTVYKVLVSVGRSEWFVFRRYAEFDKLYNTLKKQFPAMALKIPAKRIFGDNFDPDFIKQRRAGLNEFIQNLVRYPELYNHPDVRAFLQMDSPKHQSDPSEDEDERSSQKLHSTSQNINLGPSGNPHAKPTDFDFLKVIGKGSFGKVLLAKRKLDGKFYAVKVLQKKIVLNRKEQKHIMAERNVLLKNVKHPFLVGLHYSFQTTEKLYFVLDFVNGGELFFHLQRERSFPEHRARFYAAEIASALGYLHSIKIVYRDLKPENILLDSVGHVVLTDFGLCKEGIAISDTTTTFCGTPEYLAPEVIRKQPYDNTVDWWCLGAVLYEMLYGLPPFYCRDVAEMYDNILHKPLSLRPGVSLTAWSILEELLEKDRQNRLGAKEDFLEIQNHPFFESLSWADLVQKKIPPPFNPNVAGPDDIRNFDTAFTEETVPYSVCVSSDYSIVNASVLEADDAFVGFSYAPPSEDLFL
Sequence of EPHA8 (human) (P29322 whole entry, looked up): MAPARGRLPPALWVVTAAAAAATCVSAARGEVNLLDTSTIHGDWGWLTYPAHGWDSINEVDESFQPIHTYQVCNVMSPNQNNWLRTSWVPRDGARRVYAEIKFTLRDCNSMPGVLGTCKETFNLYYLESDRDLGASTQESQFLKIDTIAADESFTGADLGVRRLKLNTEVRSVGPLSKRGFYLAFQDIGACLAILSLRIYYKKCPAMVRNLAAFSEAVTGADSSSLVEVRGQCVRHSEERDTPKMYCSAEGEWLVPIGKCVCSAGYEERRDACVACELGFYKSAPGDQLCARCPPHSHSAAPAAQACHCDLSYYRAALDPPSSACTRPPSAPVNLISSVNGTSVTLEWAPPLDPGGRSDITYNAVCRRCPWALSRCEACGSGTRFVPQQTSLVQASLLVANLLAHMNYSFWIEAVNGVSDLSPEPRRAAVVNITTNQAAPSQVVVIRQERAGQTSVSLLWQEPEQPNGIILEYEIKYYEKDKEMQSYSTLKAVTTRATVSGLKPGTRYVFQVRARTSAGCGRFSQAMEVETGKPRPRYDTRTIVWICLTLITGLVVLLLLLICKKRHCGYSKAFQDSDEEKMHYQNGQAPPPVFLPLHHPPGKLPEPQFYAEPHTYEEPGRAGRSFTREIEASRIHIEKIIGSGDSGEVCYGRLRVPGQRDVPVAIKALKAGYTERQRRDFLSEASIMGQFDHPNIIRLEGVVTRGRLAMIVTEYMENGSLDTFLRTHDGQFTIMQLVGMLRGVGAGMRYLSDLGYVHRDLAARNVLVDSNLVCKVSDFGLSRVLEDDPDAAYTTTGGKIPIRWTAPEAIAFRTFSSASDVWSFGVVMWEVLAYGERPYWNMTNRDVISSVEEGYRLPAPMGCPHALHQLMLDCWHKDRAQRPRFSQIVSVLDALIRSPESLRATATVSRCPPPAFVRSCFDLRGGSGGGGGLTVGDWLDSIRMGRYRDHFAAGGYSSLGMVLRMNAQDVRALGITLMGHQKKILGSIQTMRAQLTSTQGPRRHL
Sequence of MAP3K8 (human) (P41279 whole entry, looked up): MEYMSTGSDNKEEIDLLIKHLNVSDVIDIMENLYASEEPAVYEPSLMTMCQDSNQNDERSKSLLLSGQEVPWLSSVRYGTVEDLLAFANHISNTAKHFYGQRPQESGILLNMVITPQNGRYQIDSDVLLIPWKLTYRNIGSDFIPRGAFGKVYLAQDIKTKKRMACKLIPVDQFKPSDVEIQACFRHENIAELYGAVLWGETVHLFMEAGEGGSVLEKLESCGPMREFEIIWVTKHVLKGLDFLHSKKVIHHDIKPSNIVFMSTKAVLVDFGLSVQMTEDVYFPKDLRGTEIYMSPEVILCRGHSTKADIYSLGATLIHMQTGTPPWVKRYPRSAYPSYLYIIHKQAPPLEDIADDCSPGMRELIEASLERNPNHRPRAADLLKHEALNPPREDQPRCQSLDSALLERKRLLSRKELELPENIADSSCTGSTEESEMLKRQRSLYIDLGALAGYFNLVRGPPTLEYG
Sequence of MAP4K4 (human) (O95819 whole entry, looked up): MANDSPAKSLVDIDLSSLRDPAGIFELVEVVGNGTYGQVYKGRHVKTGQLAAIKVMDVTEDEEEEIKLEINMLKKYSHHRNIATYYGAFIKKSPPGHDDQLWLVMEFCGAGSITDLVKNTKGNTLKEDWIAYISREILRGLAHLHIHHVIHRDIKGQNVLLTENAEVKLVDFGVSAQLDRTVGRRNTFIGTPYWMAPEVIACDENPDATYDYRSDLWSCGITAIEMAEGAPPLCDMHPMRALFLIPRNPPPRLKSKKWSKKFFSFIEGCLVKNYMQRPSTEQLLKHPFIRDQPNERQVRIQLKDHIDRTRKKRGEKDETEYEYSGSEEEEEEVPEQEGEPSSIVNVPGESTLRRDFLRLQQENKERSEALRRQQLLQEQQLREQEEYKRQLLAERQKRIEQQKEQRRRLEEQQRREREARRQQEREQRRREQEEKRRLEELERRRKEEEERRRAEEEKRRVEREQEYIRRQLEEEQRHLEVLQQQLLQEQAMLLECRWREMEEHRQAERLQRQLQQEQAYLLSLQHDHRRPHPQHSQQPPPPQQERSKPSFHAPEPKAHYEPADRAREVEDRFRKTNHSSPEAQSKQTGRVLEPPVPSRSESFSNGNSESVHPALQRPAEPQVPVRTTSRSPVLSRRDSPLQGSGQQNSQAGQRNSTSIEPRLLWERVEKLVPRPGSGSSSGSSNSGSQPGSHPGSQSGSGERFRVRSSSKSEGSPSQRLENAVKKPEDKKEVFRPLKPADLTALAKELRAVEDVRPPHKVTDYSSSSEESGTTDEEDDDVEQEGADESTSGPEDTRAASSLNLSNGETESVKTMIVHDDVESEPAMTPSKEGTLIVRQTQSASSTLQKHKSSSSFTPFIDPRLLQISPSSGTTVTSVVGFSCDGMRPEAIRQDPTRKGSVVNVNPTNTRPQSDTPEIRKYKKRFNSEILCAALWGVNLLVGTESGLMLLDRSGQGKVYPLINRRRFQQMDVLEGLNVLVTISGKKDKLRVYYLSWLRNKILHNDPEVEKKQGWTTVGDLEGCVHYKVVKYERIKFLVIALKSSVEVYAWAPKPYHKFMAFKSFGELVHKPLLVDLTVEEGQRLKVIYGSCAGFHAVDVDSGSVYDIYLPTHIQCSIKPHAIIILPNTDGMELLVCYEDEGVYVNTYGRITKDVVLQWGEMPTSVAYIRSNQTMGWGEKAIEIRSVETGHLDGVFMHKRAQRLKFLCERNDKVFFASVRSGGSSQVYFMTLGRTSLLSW
Sequence of MAP4K2 (human) (Q12851 whole entry, looked up): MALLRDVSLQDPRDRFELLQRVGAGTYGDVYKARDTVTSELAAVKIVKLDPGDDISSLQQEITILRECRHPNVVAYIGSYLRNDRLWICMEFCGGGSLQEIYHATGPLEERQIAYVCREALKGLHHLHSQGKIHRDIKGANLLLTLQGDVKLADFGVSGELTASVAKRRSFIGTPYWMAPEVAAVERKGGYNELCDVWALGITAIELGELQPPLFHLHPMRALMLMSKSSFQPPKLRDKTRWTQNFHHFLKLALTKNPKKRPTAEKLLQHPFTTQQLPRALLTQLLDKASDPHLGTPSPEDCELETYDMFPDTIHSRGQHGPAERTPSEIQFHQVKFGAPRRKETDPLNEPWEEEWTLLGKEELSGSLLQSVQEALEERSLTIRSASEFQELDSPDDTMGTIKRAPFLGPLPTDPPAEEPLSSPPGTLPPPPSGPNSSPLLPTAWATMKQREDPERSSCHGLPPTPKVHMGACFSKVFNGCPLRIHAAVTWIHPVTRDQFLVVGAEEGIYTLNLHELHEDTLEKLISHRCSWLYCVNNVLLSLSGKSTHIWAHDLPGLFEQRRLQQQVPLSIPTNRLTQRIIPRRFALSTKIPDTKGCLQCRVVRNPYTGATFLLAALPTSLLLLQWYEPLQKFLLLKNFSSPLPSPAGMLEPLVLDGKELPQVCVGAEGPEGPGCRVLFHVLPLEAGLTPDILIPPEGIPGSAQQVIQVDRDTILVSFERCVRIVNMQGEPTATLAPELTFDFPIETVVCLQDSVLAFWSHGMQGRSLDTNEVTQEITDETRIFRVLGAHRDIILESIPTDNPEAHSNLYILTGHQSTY

`O=C1NC(=O)c2cc(Nc3ccc(F)cc3)c(Nc3ccc(F)cc3)cc21` was tested, and the residual activity (ULK1 (human)) was 102%, the residual activity (KDR (human)) was 97.9% and the residual activity (PLK3 (human)) was 98%. The residual activity (MAP4K2 (human)) was 98.2%, the residual activity (FGR (human)) was 96.3% and the residual activity (PDGFRA (human)) was 101%. It also gave a residual activity (MAPK3 (human)) of 86.1%, a residual activity (MAP4K4 (human)) of 91.2% and a residual activity (SRC (human)) of 101%. The residual activity (ALK (human)) was 92.6%, the residual activity (DYRK2 (human)) was 89.1% and the residual activity (CHEK2 (human)) was 94.3%. It also gave a residual activity (PRKD2 (human)) of 86.8%, a residual activity (MUSK (human)) of 90.2% and a residual activity (MAPK8 (human)) of 91.4%. For the same compound, the residual activity (AKT1 (human)) was 94.8%, the residual activity (ACVRL1 (human)) was 95.9% and the residual activity (BTK (human)) was 94.3%. The residual activity (MET (human)) was 96.7%, the residual activity (MAP3K8 (human)) was 96.3% and the residual activity (SGK3 (human)) was 102%. For the same compound, the residual activity (IKBKE (human)) was 100%, the residual activity (PNCK (human)) was 97.3% and the residual activity (CAMK2G (human)) was 101%. It also gave a residual activity (CDK1 CCNB1 (human)) of 103%, a residual activity (DCLK2 (human)) of 100% and a residual activity (STK10 (human)) of 79.2%. The residual activity (EPHA8 (human)) was 95.5%, the residual activity (ROS1 (human)) was 92% and the residual activity (ACVR1B (human)) was 94.2%. For the same compound, the residual activity (SGK2 (human)) was 99.7%, the residual activity (EPHA4 (human)) was 94% and the residual activity (PAK1 (human)) was 95.5%. It also gave a residual activity (MAPK11 (human)) of 94.6%, a residual activity (WNK2 (human)) of 110% and a residual activity (PRKCZ (human)) of 100%. The residual activity (MAP3K7 TAB1 (human)) was 98.8%, the residual activity (CDC42BPA (human)) was 92.3% and the residual activity (RAF1 (human)) was 81.9%. It also gave a residual activity (CSNK1G2 (human)) of 97.5%, a residual activity (DYRK1A (human)) of 95.6% and a residual activity (TAOK2 (human)) of 94.7%.
With `Cn1cc(/C=C2\C(=O)Nc3ccc(S(N)(=O)=O)cc32)c2ccccc21` the residual activity (ULK1 (human)) was 27.5%, the residual activity (KDR (human)) was 74.3% and the residual activity (PLK3 (human)) was 99%. For the same compound, the residual activity (MAP4K2 (human)) was 17.4%, the residual activity (FGR (human)) was 28.4% and the residual activity (PDGFRA (human)) was 81%. For the same compound, the residual activity (MAPK3 (human)) was 109%, the residual activity (MAP4K4 (human)) was 22.5% and the residual activity (SRC (human)) was 45.1%. For the same compound, the residual activity (ALK (human)) was 72.1%, the residual activity (DYRK2 (human)) was 85.5% and the residual activity (CHEK2 (human)) was 1.3%. For the same compound, the residual activity (PRKD2 (human)) was 87.2%, the residual activity (MUSK (human)) was 105% and the residual activity (MAPK8 (human)) was 108%. The residual activity (AKT1 (human)) was 105%, the residual activity (ACVRL1 (human)) was 99.1% and the residual activity (BTK (human)) was 30.4%. The residual activity (MET (human)) was 84.2%, the residual activity (MAP3K8 (human)) was 96.8% and the residual activity (SGK3 (human)) was 94.7%. The residual activity (IKBKE (human)) was 21.9%, the residual activity (PNCK (human)) was 58.1% and the residual activity (CAMK2G (human)) was 91.9%. The residual activity (CDK1 CCNB1 (human)) was 49.6%, the residual activity (DCLK2 (human)) was 93.2% and the residual activity (STK10 (human)) was 17%. For the same compound, the residual activity (EPHA8 (human)) was 83.4%, the residual activity (ROS1 (human)) was 82.2% and the residual activity (ACVR1B (human)) was 98.4%. The residual activity (SGK2 (human)) was 80.7%, the residual activity (EPHA4 (human)) was 80.5% and the residual activity (PAK1 (human)) was 90.8%. The residual activity (MAPK11 (human)) was 93.8%, the residual activity (WNK2 (human)) was 97.7% and the residual activity (PRKCZ (human)) was 105%. For the same compound, the residual activity (MAP3K7 TAB1 (human)) was 48.9%, the residual activity (CDC42BPA (human)) was 70.7% and the residual activity (RAF1 (human)) was 102%. For the same compound, the residual activity (CSNK1G2 (human)) was 100%, the residual activity (DYRK1A (human)) was 92.2% and the residual activity (TAOK2 (human)) was 86.4%.
Compound `COc1cc2ncnc(Nc3ccc(O)c(Br)c3)c2cc1OC` has a residual activity (ULK1 (human)) of 87.2%, a residual activity (KDR (human)) of 69.6% and a residual activity (PLK3 (human)) of 95.2%. It also gave a residual activity (MAP4K2 (human)) of 101%, a residual activity (FGR (human)) of 57.8% and a residual activity (PDGFRA (human)) of 88.9%. The residual activity (MAPK3 (human)) was 97%, the residual activity (MAP4K4 (human)) was 59.3% and the residual activity (SRC (human)) was 77.5%. The residual activity (ALK (human)) was 12.5%, the residual activity (DYRK2 (human)) was 60% and the residual activity (CHEK2 (human)) was 51%. The residual activity (PRKD2 (human)) was 69.7%, the residual activity (MUSK (human)) was 78.2% and the residual activity (MAPK8 (human)) was 101%. The residual activity (AKT1 (human)) was 94%, the residual activity (ACVRL1 (human)) was 102% and the residual activity (BTK (human)) was 85.5%. For the same compound, the residual activity (MET (human)) was 96.4%, the residual activity (MAP3K8 (human)) was 97.6% and the residual activity (SGK3 (human)) was 94.5%. The residual activity (IKBKE (human)) was 94.6%, the residual activity (PNCK (human)) was 103% and the residual activity (CAMK2G (human)) was 95.2%. The residual activity (CDK1 CCNB1 (human)) was 81.3%, the residual activity (DCLK2 (human)) was 101% and the residual activity (STK10 (human)) was 14.5%. For the same compound, the residual activity (EPHA8 (human)) was 88.3%, the residual activity (ROS1 (human)) was 65.7% and the residual activity (ACVR1B (human)) was 105%. For the same compound, the residual activity (SGK2 (human)) was 95.1%, the residual activity (EPHA4 (human)) was 83.7% and the residual activity (PAK1 (human)) was 94.1%. For the same compound, the residual activity (MAPK11 (human)) was 90.1%, the residual activity (WNK2 (human)) was 102% and the residual activity (PRKCZ (human)) was 93%. For the same compound, the residual activity (MAP3K7 TAB1 (human)) was 100%, the residual activity (CDC42BPA (human)) was 96.9% and the residual activity (RAF1 (human)) was 92.1%. It also gave a residual activity (CSNK1G2 (human)) of 96.4%, a residual activity (DYRK1A (human)) of 97.8% and a residual activity (TAOK2 (human)) of 95.8%.
